Measured values reported in US7868026B2, “Therapeutic compounds” (Pfizer Inc., priority 2005, dated 2011).
Like-named read-outs stand apart in the source and are kept apart here.

Legend:
Assay type in all cases: biochemical
[1] = biological target: T1, CYP3A4 (Homo sapiens, UniProt P08684); assay: Determination of compound Kiapp against recombinant CYP3A4 enzyme (BFC fluorescent substrate)
Outline: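 Recombinant CYP3A4 (5.5 or 8 nM, with or without b5 depending on source) pre-incubated with inhibitor ≥30 min at room temperature in 100 mM sodium phosphate pH 7.0, 5 mM TCEP, 2% DMF. Reaction started with 200 uM NADPH and 5 uM BFC; initial fluorescence rates over 5 min fitted to Morrison tight-binding (non-partial) or Szedlacsek (partial) equations for Kiapp.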

[2] = biological target: T1, CYP3A4; assay: Determination of IC50 against CYP3A4 by measurement of inhibition of testosterone metabolism (human liver microsomes, 6-β-OH-testosterone by LC-MS/MS); design: 0.1 mg/mL human liver microsomes; settings: read-out: IC50 (Testo.)
Outline: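 Human liver microsomes (0.1 mg/mL) incubated with 25 μM testosterone and 1 mM NADPH in 100 mM potassium phosphate, pH 7.4, for eight minutes. 6-β-OH-testosterone measured by LC-MS/MS in MRM mode against an internal standard and quantified from a metabolite standard curve.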

[3] = biological target: T1, CYP3A4; assay: Determination of IC50 against CYP3A4 by measurement of inhibition of midazolam metabolism (human liver microsomes, 1-hydroxymidazolam by LC-MS/MS); design: 0.1 mg/mL human liver microsomes; settings: 2 μM midazolam, 0.1 mg/mL human liver microsomes
Outline: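 Human liver microsomes (0.1 mg/mL) incubated 8 min with 2 μM midazolam and 1 mM NADPH in 100 mM potassium phosphate, pH 7.4. 1-Hydroxymidazolam quantified by LC-MS/MS (MRM) as peak area ratio to internal standard against a metabolite standard curve.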

[4] = Baculo. enzyme preparation, read-out: Kiapp (BFC, Baculo.)
[5] = Super. enzyme preparation, read-out: Kiapp (BFC, Super.)

T1 sequence (P08684 whole entry): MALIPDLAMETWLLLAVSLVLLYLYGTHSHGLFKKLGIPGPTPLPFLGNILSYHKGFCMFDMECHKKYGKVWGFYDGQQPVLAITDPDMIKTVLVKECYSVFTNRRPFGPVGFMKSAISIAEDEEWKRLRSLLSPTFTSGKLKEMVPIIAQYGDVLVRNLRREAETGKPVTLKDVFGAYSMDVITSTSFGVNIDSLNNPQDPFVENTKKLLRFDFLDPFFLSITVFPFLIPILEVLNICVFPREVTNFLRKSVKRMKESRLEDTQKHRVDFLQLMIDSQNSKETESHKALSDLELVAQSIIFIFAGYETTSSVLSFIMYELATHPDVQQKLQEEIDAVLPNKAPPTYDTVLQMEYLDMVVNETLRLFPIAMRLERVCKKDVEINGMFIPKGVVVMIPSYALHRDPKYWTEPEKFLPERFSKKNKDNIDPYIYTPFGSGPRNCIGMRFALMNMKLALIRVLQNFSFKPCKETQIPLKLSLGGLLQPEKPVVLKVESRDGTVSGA

| Ki [1, 4] [nM] | Ki [1, 5] [nM] | IC50 [2] [nM] | IC50 [3] [nM] | SMILES |
| --- | --- | --- | --- | --- |
| 70.1 | 8.85 | 46 | 25 | CCCCN(C)C(=O)c1ccccc1S(=O)(=O)Nc1cnccc1OCC [Example 274, N-butyl-2-{[(4-ethoxypyridin-3-yl)amino]sulfonyl}-N-methylbenzamide] |
| > 1000 | 515 | > 750 | > 750 | COc1cncc(NS(=O)(=O)c2ccccc2C(=O)N2CCC(O)CC2)c1 [Example 365, 2-[(4-hydroxypiperidin-1-yl)carbonyl]-N-(5-methoxypyridin-3-yl)benzenesulfonamide] |
| 460 | 44.6 | 67 | 63 | O=C(NC1CCCCC1)c1ccccc1S(=O)(=O)Nc1cccnc1 [Example 8, N-cyclohexyl-2-[(pyridin-3-ylamino)sulfonyl]benzamide] |
| 34 | 17.7 | 58 | 32 | CCCN(CC1CC1)C(=O)c1ccccc1S(=O)(=O)N(C)c1cncc(OC)c1 [Example 329, N-(cyclopropylmethyl)-2-{[(5-methoxypyridin-3-yl)(methyl)amino]sulfonyl}-N-propylbenzamide] |
| > 1000 | 218 | 60 | 54 | O=C(NCc1ccc2ncccc2c1)c1ccccc1S(=O)(=O)Nc1cccnc1 [Example 89, 2-[(pyridin-3-ylamino)sulfonyl]-N-(quinolin-6-ylmethyl)benzamide] |
| 505 | 20.1 | 263 | 68 | COC[C@H](C)NC(=O)c1ccccc1S(=O)(=O)Nc1cncc(OC)c1 [Example 382, N-[(1S)-2-methoxy-1-methylethyl]-2-{[(5-methoxypyridin-3-yl)amino]sulfonyl}benzamide] |
| 8.6 | 5.31 | 12 | 10 | CCOc1ccncc1NS(=O)(=O)c1ccccc1C(=O)N(C)Cc1ccc(F)c(F)c1 [Example 251, N-(3,4-difluorobenzyl)-2-{[(4-ethoxypyridin-3-yl)amino]sulfonyl}-N-methylbenzamide] |
| > 1000 | 106 | 97 | 70 | Cc1ccncc1NS(=O)(=O)c1ccccc1C(=O)NC(C)(C)C [Example 178, N-(tert-butyl)-2-{[(4-methylpyridin-3-yl)amino]sulfonyl}benzamide] |
| 203 | 35.2 | 80 | 50 | COc1cncc(NS(=O)(=O)c2ccc(OCCN3CCNCC3)cc2C(=O)NCc2ccc(F)cc2)c1 [Example 253, N-(4-fluorobenzyl)-2-{[(5-methoxypyridin-3-yl)amino]sulfonyl}-5-(2-piperazin-1-ylethoxy)benzamide] |
| 171 | 9.7 | 7 | 6 | COc1cncc(NS(=O)(=O)c2ccccc2C(=O)NCc2ccccc2OC)c1 [Example 186, N-(2-methoxybenzyl)-2-{[(5-methoxypyridin-3-yl)amino]sulfonyl}benzamide] |
| 592 | 137 | 100 | 68 | CC1CC(C)CN(C(=O)c2ccccc2S(=O)(=O)N(C)c2cccnc2)C1 (centres unmarked) [Example 358, 2-[(3,5-dimethylpiperidin-1-yl)carbonyl]-N-methyl-N-pyridin-3-ylbenzenesulfonamide] |
| 77.8 | 24.9 | 48 | 32 | CCCCNC(=O)c1ccccc1S(=O)(=O)Nc1cncc(OCC)c1 [Example 306, N-butyl-2-{[(5-ethoxypyridin-3-yl)amino]sulfonyl}benzamide] |
| 24 | 1.3 | 9 | 9 | COc1cncc(NS(=O)(=O)c2ccccc2C(=O)NCc2cccc(Cl)c2F)c1 [Example 175, N-(3-chloro-2-fluorobenzyl)-2-{[(5-methoxypyridin-3-yl)amino]sulfonyl}benzamide] |
| 167 | 43.6 | 96 | 52 | CC(C)(NC(=O)c1ccccc1S(=O)(=O)Nc1cccnc1)C1CC1 [Example 4, N-(1-cyclopropyl-1-methylethyl)-2-[(pyridin-3-ylamino)sulfonyl]benzamide] |
| 92.8 | 7 | 11 | 4 | COc1cncc(NS(=O)(=O)c2ccccc2C(=O)NCc2c(F)ccc(C)c2F)c1 [Example 180, N-(2,6-difluoro-3-methylbenzyl)-2-{[(5-methoxypyridin-3-yl)amino]sulfonyl}benzamide] |
| > 1000 | 392 | 356 | 451 | COCCNC(=O)c1ccccc1S(=O)(=O)Nc1cnccc1C [Example 174, N-(2-methoxyethyl)-2-{[(4-methylpyridin-3-yl)amino]sulfonyl}benzamide] |

Second part, the compound before the results:

| SMILES | Ki [1, 4] [nM] | Ki [1, 5] [nM] | IC50 [2] [nM] | IC50 [3] [nM] |
| --- | --- | --- | --- | --- |
| CCOc1cncc(NS(=O)(=O)c2ccccc2C(=O)NCc2ccc(F)c(C(F)(F)F)c2)c1 [Example 288, 2-{[(5-ethoxypyridin-3-yl)amino]sulfonyl}-N-[4-fluoro-3-(trifluoromethyl)benzyl]benzamide] | 2.2 | 3.08 | 18 | 12 |
| COc1cncc(NS(=O)(=O)c2ccccc2C(=O)NCCc2cccc(Cl)c2)c1 [Example 152, N-[2-(3-chlorophenyl)ethyl]-2-{[(5-methoxypyridin-3-yl)amino]sulfonyl}benzamide] | 46.1 | 6.4 | 23 | 13 |
| O=C(c1ccccc1S(=O)(=O)Nc1cccnc1)N1CC2(CCNCC2)C1 [Example 7, 2-(2,7-diazaspiro[3.5]non-2-ylcarbonyl)-N-pyridin-3-ylbenzenesulfonamide] | > 1000 | > 1000 | > 750 | > 750 |
| CCOc1ccncc1NS(=O)(=O)c1ccccc1C(=O)NCc1ccc(F)c(F)c1 [Example 252, N-(3,4-difluorobenzyl)-2-{[(4-ethoxypyridin-3-yl)amino]sulfonyl}benzamide] | 17.1 | 5.41 | 9 | 9 |
| COCCNC(=O)c1ccccc1S(=O)(=O)Nc1cncc(OC)c1 [Example 239, N-(2-methoxyethyl)-2-{[(5-methoxypyridin-3-yl)amino]sulfonyl}benzamide] | 849 | 191 | 301 | 163 |
| COc1cncc(NS(=O)(=O)c2ccccc2C(=O)N(C)Cc2cccc(F)c2)c1 [Example 346, N-(3-fluorobenzyl)-2-{[(5-methoxypyridin-3-yl)amino]sulfonyl}-N-methylbenzamide] | 52 | 13.2 | 11 | 19 |
| COc1cncc(NS(=O)(=O)c2ccc(Cl)cc2C(=O)NCCC(C)C)c1 [Example 295, 5-chloro-2-{[(5-methoxypyridin-3-yl)amino]sulfonyl}-N-(3-methylbutyl)benzamide] | 184 | 42 | 231 | 42 |
| COc1cncc(NS(=O)(=O)c2ccccc2C(=O)NCCOC(C)C)c1 [Example 241, N-(2-isopropoxyethyl)-2-{[(5-methoxypyridin-3-yl)amino]sulfonyl}benzamide] | 751 | 97 | 150 | 77 |
| CCC(C)NC(=O)c1ccccc1S(=O)(=O)Nc1cncc(OC)c1 (centres unmarked) [Example 205, N-(sec-butyl)-2-{[(5-methoxypyridin-3-yl)amino]sulfonyl}benzamide] | 206 | 41.9 | 27 | < 15.5 |
| Cc1cncc(NS(=O)(=O)c2ccccc2C(=O)NCc2ccc(F)c(F)c2)c1 [Example 320, N-(3,4-difluorobenzyl)-2-{[(5-methylpyridin-3-yl)amino]sulfonyl}benzamide] | 10.1 | 28.4 | 8 | 6 |
| CCCCCNC(=O)c1ccccc1S(=O)(=O)Nc1cccnc1 [Example 61, N-pentyl-2-[(pyridin-3-ylamino)sulfonyl]benzamide] | 131 | 7.7 | 30.2 | 26.8 |
| CN(c1cccnc1)S(=O)(=O)c1ccccc1C(=O)NCC1CCCC1 [Example 332, N-(cyclopentylmethyl)-2-{[methyl(pyridin-3-yl)amino]sulfonyl}benzamide] | 334 | 61.2 | 13 | 13 |
| O=C(NCc1cccc(OC(F)F)c1)c1ccccc1S(=O)(=O)Nc1cccnc1 [Example 71, N-[3-(difluoromethoxy)benzyl]-2-[(pyridin-3-ylamino)sulfonyl]benzamide] | 245 | 5.1 | < 3 | 29 |
| Cc1cncc(NS(=O)(=O)c2ccccc2C(=O)N2CCCCC2)c1 [Example 30, N-(5-methylpyridin-3-yl)-2-(piperidin-1-ylcarbonyl)benzenesulfonamide] | 690 |  | 125 | 56 |
